This is an account of results in patent US20040048791A1, “Method for treating neoplastic cells using cycloprodigiosin or salt thereof” (priority 2002, published 2004).

One experiment has as its target PKA (Homo sapiens, UniProt P17612). Briefly: PKA activity in vitro. In kind it is biochemical. Conditions: FIG. 13, hydrochloride. The source says:
Accordingly, in order to identify the p65 kinase which cPrG-HCl suppressed, the effect of cPrG-HCl on PKA (FIG. 13), casein kinase II (CKII) (FIG. 12), and IκB kinase (IKK) (FIG. 14) was studied in vitro.

The subject of experiment [1] is NF-κB. Conditions: earlier abstract of the inventors (Kamata et al., 2000); cited from earlier work.
The test system of another experiment is AP-1. The experiment is described as follows: AP-1 luciferase reporter assay (pAPLuc) in HeLa cells. It is filed as cell-based. As for the experimental part:
In the same manner as described in Experimental example 1, HeLa cells were transfected with the AP-1 reporter gene plasmid pAPLuc. After 20 hours, the cells were pretreated with cPrG-HCl (1 μM) for 1 hour and then stimulated with TNFα (20 ng/ml) or PMA (1 μg/ml) for 4 hours, after which, luciferase activity was measured. Each activity was corrected for the amount of protein.
Background: A reporter such as luciferase makes a cellular process visible.

A further experiment deals with JNK. Briefly: JNK kinase activity after immune precipitation from HeLa cells. It is filed as cell-based. The conditions noted are these: 1 μM, TNFα or PMA 15 minutes, FIG. 9A, hydrochloride. As for the experimental part: HeLa cells were pretreated with cPrG-HCl (1 μM) for 1 hour and then stimulated with TNFα (20 ng/ml) or PMA (1 μg/ml) for 15 minutes, and JNK recovered by an immune precipitation method was then reacted with [γ-^32P]-ATP and a substrate GST-c-Jun, after which SDS-PAGE was carried out and the resulting gel was analyzed by an imaging analyzer. Further, HeLa cells were pretreated with cPrG-HCl (1 μM) for 1 hour and then stimulated with TNFα (20 ng/ml) for 15 minutes, a cell extract was recovered and subjected to SDS-PAGE and Western blotting was carried out using p38 phosphorylation antibody.

A further experiment relates to caspase-3. Briefly: Caspase-3 assay with DEVD-AFC on cell extracts. It is filed as cell-based. Conditions: HeLa cells, cPrG-HCl and TNFα, FIG. 1B; hydrochloride. The protocol:
Assay for apoptotic processes: Cell viability was determined by dye exclusion assay using 0.1% trypan blue. DNA fragmentation was analyzed as described previously (Kawauchi, K. et al. (1997) Biochem. Biophys. Res. Commun. 237, 543-547). In the caspase-3 assay, cells were disrupted by freeze-thaw in an extraction buffer (50 mM Tris-HCl, pH7.4, 1 mM EGTA, 5 mM EDTA, 5 mM MgCl2, 1 mM APMSF, 10 μg/ml pepstatin, 10 μg/ml leupeptin, and 1 mM DTT). Then the suspension was centrifuged at 15,000 rpm for 20 min, and the supernatants obtained were incubated at 37° C. for 60 min in a reaction buffer (50 mM Tris-HCl, pH7.4, 1 mM EDTA, 10 mM EGTA) with 20 μM of the fluorogenic substrate DEVD-AFC (Peptide Institute, Inc., Japan). Cleavage of the substrates was quantified by measuring the fluorescence of 7-amino-4-trifluomethyl coumarin released using a spectrofluorometer (Shimadzu RF5000) with excitation at 380 mn and emission at 460 nm.
HeLa cells were treated with TNFα and cPrG.HCl and the effect of cPrG.HCl on apoptosis was examined by measuring DNA fragmentation and survivability.

The test system of experiment [2] is NF-κB. The experiment is described as follows: Nuclear translocation of NF-κB (Western blotting of p65 and p50). It is filed as cell-based. As for the experimental part: Electrophoretic mobility shift assay (EMSA): Nuclear extracts were prepared by the method of Schreiber, et al (Schreiber, E., Matthias, P., Muller, M. M. and Schaffner, W. (1989) Nucleic Acids Res. 17, 6419). Briefly, cells were solubilized with a buffer (10 mM HEPES-NaOH, pH 7.9, 10 mM KCl, 0.1 mM EDTA, 0.1 mM EGTA, 0.4% NP-40, 0.5 mM PMSF, 1 μg/ml aprotinin, 1 μg/ml leupeptin, 1 μg/ml pepstatin, 1 mM DTT), and then centrifuged at 10,000 rpm for 15 min. The pellets were resuspended in a buffer (20 mM HEPES-NaOH, pH 7.9, 400 mM NaCl, 1 mM EDTA, 1 mM EGTA, 1 mM PMSF, 1 μg/ml aprotinin, 1 μg/ml leupeptin, 1 μg/ml pepstatin, 1 μg/ml chymostatin, 1 μg/ml antipain, 1 mM DTT), and then centrifuged at 15,000 rpm for 15 min. […] The samples were electrophoresed on an 8% polyacrylamide gel and analyzed by an Imaging plate (Fuji Film). […]
In order to find out the mechanism of NF-κB suppression by cPrG-HCl, the effect on the signal transduction system, which functions upstream of NF-κB, was analyzed. […] Next, the effect of cPrG-HCl on phosphorylation and degradation of IκB was analyzed by Western blotting using anti-IκB antibody (FIG. 2E). […] Accordingly, nuclear translocation of NF-κB was analyzed by Western blotting using p65 and p50 which are components of NF-κB (FIG. 2F). […] Further, the state of NF-κB activation in the nucleus was analyzed by EMSA (electrophoretic mobility shift assay) (FIG. 2G). […]
In general terms: In western blotting, separated proteins are transferred to a membrane and probed.

Entries after “also recorded” stand apart in the source; their conditions may differ. Where a name gives a salt, the structure may show the parent alone. Read-outs that look alike come from different tables or passages of the source.

In the case of `COC1=CC(c2ccc[nH]2)=N/C1=C\c1[nH]c(C)c2c1C(C)CCC2` (centres unmarked) [cPrG-HCl, Cycloprodigiosin hydrochloride], at PKA, the “effect on PKA activity” value is recorded as “does not directly suppress; also recorded: no suppressive effect”. Further, the “nuclear translocation of NF-κB” value is recorded as “no suppressive effect” in the experiment on NF-κB [1]; “inhibited neither” with NF-κB [2] (PMA stimulation, FIG. 3B); “not inhibited” in the experiment on NF-κB [2] (TNFα stimulation, FIG. 2F). Also, in the experiment on AP-1 (HeLa cells, 1 μM, TNFα (20 ng/ml) or PMA (1 μg/ml), FIG. 5), the AP-1 transcriptional activity entry was “significantly suppressed”. In the experiment on AP-1 (in the presence of imidazole), the “PMA-induced AP-1 transcriptional activation” value is on record as “suppressed”. Further, in the experiment with JNK, the “effect on JNK kinase” value is listed as “suppressed neither; also recorded: no suppression”. Moreover, in the experiment on caspase-3, the caspase-3 activation result was “markedly induced; also recorded: marked synergistic caspase-3 activation”.
